According to ChEMBL document CHEMBL1201862, “PubChem BioAssay data set” (2004):
The source made the active and inactive calls. Rule as the data show it, for most assays here: actives have a measured EC50 and inactives only a lower limit.

Assays:
[1] = NIH-3T3 fibroblast cytotoxicity, dose response, cytotoxicity control, cell-based, fluorescence, Alamar Blue, secondary assay (AID 2327); type: functional;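 also: NIH-3T3 mouse fibroblasts cultured with fluconazole at 8 µg/mL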
[2] = Luminescence Cell-Based Dose Response HTS to Identify Activators of Luciferase Translation or Activity in H4 […] Cells. [Related pubchem assays: 1829 (Project Summary), 1814 (Primary HTS)]; type: functional
H4 = experiment: Luminescence Cell-Based Dose Response HTS to Identify Activators of 5'UTR Stem-Loop Driven Prion Protein mRNA Translation in H4 Neuroglioblastoma Cells. [Related pubchem assays: 1829 (Project Summary), 1814 (Primary HTS)]; type: functional; details: Homo sapiens
[3] = C. albicans growth with fluconazole, confirmation, fluorescence, retest (AID 2467); type: functional, cell-based
[4] = target: T1, Replicative DNA helicase DnaB (Mycobacterium tuberculosis, UniProt P9WMR3); experiment: DnaB intein splicing inhibitors, dose response, biochemical, cell-free fluorescence (AID 449749); type: functional
T1 sequence (P9WMR3 whole entry): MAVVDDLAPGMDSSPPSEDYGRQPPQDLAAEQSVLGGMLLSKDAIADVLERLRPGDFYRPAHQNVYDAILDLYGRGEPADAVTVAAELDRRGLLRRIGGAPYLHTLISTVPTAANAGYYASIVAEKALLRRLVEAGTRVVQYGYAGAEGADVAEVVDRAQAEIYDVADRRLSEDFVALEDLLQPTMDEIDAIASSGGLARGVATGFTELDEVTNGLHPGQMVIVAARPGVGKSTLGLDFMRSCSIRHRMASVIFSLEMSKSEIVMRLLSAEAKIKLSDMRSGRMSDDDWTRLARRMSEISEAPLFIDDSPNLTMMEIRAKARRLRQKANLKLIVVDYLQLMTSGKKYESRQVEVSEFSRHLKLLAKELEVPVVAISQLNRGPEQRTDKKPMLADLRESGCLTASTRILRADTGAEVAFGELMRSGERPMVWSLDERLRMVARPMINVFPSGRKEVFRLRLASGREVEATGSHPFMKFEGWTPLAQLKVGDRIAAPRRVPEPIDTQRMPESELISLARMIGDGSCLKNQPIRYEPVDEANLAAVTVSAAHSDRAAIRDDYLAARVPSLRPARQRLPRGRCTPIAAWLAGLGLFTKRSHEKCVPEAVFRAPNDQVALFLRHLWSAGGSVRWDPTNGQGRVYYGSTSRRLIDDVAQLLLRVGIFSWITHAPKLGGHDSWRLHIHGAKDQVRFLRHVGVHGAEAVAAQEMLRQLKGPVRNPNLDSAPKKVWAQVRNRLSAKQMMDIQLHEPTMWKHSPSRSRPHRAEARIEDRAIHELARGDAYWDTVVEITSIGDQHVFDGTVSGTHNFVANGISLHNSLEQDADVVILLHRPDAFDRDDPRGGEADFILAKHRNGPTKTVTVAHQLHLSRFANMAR

Protein RecA = target: T2, Protein RecA (Mycobacterium tuberculosis, UniProt P9WHJ3); experiment: Fluorescence Cell-Free Homogeneous Dose Retest to Identify Inhibitors of RecA-Intein Splicing Activity. [Related pubchem assays (depositor defined):AID2097, AID2223, AID489010, AID492950]; type: functional
T2 sequence (P9WHJ3 whole entry): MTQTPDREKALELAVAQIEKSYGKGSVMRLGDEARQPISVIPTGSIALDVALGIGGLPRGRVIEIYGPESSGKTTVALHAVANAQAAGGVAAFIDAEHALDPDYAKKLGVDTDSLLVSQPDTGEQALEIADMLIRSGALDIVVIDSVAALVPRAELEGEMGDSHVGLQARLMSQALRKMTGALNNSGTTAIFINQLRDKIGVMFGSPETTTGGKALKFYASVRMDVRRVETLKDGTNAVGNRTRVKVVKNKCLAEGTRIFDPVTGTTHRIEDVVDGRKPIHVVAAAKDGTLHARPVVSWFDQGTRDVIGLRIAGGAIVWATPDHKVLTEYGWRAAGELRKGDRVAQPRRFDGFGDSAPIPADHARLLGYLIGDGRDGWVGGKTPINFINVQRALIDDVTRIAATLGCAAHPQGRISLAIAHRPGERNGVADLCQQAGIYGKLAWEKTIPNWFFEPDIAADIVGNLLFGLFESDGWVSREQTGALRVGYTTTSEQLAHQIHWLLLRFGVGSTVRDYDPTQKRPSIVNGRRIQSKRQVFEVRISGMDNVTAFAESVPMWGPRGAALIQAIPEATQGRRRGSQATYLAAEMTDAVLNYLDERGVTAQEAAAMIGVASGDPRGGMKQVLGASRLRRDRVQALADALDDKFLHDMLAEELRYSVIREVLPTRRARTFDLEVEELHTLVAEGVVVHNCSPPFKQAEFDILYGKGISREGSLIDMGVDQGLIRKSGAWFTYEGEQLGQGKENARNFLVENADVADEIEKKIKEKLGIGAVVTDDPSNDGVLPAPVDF

[5] = inhibitors of intracellular T. cruzi replication, confirmation, NIH3T3 host cells, beta-gal luminescence (AID 2044); type: functional, cell-based;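 also: intracellular parasites grown in NIH/3T3 mouse fibroblasts as host cells; luminescent beta-galactosidase reporter signal from transgenic T. cruzi replicating inside host cells; inhibitors lower the luminescence signal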
[6] = cytotoxicity toward NIH3T3 fibroblasts, dose response, counter-screen, cell-based, ATP luminescence, mouse fibroblasts (AID 2010); type: functional;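 also: cells exposed to compound for about 90 hours before reading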
[7] = inhibitors of PGC1a acetylation in cells, dose response, cell-based, cherry-picked samples (AID 720514); type: functional;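 also: potency may reflect raised or lowered acetylation signal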
[8] = Luminescence Cell-Based Dose Confirmation HTS to Identify Activators of 5'UTR Stem-Loop Driven Alpha-Synuclein mRNA Translation in H4 Neuroglioblastoma Cells. [Related pubchem assays: 1829 (Project Summary), 1814 (Primary HTS)]; type: functional
BJ [9] = experiment: cytotoxicity toward BJ-TERT fibroblasts, dose response, cell-based, RAS-independent, luminescence (AID 1933); type: functional; details: Homo sapiens
BJ [10] = experiment: cells; type: functional, cell-based; details: Homo sapiens
BJ [11] = experiment: cytotoxicity toward BJ-TERT-LT-ST fibroblasts, dose response, cell-based, RAS-independent, luminescence (AID 1935); type: functional; details: Homo sapiens;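 also: BJ fibroblasts immortalized with TERT plus LT and ST oncogenes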
[12] = Vero cell cytotoxicity, dose response, cytotoxicity control for Vif-APOBEC3G degradation inhibitor project, Vero cells (AID 1117358); type: functional; details: Human immunodeficiency virus 1, Vero
[13] = cytotoxicity toward DRD oncogenic fibroblasts, dose response, cell-based, non-viral oncogenic, luminescence (AID 1934); type: functional; details: Homo sapiens
Protein Tat = Protein Tat (Human immunodeficiency virus type 1 group M subtype B (isolate HXB2)(HIV-1), UniProt P04608); type: functional;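 also: tat binding to TAR RNA read out by fluorescence polarization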
[14] = target: Mitogen-activated protein kinase 10 (Homo sapiens, UniProt P53779); experiment: Dose response biochemical screening assay for inhibitors of c-Jun N-Terminal Kinase 3 (JNK3). [Related pubchem assays: 746 ]
Chain of Mitogen-activated protein kinase 10 (P53779 whole entry): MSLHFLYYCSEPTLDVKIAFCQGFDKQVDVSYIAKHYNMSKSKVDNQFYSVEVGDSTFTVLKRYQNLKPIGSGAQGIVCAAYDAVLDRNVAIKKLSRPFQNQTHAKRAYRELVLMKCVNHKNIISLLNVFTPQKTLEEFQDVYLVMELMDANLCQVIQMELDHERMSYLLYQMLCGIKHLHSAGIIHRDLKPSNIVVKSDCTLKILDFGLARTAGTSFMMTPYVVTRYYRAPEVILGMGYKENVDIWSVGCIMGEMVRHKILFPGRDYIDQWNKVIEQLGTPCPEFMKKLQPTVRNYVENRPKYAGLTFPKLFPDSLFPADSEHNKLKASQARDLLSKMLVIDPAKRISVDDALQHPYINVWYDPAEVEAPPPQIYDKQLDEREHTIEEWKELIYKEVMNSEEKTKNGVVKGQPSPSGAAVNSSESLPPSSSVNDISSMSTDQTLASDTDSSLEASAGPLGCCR

Chain of Protein Tat (P04608 whole entry): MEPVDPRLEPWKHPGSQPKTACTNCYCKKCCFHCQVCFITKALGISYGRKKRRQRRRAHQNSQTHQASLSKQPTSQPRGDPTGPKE

For `O=C(OCn1ncc(Cl)c(Cl)c1=O)c1ccc(C(F)(F)F)cc1`, the EC50 [1] was 4.13 µM (inconclusive), the EC50 [2] was > 120 µM (not active) and the EC50 (H4) was > 120 µM (not active). For the same compound, the EC50 [3] was > 38 µM (not active), the AC50 [4] was 1.23 µM (active) and the EC50 (Protein RecA) was 0.308 µM (active). The EC50 [5] was 1.92 µM (active), the EC50 [6] was 1.89 µM (active) and the AC50 [7] was 20.6 µM (active). For the same compound, the EC50 [8] was > 120 µM (not active).

With `CCCOc1ccccc1C1CC(=O)NC2=C1C(=O)CCC2` (configuration not stated) the EC50 (BJ [9]) was 16 µM (active), the EC50 (BJ [10]) was 44.4 µM (active) and the EC50 (BJ [11]) was 17.2 µM (active). The CC50 [12] was > 40 µM (active) and the EC50 [13] was 32.7 µM (active).

For `Nc1ccccc1NC1=CC(=O)CC(c2ccco2)C1` (configuration not stated), the IC50 (Protein Tat) was 31.6 µM (inconclusive).

With `c1ccc(-c2onc3cc4c(cc23)OCCO4)cc1` the IC50 [14] was 50.1 µM (not active).
